Laboratory results from paper PMC9965614, “Computer-Aided Virtual Screening and In Vitro Validation of Biomimetic Tyrosinase Inhibitory Peptides from Abalone Peptidome” (International Journal of Molecular Sciences, 2023).
“Also recorded” adds a separate entry of the source. Where a SMILES comes first, the peptide text is derived from it.

How the values were obtained:
mushroom tyrosinase = mushroom tyrosinase (Agaricus bisporus, UniProt C7FF04); assay: Mushroom tyrosinase activity assay (L-DOPA oxidation, diphenolase); type: biochemical; details: L-DOPA substrate, up to 500 μM
Sequence of mushroom tyrosinase (C7FF04 1-392): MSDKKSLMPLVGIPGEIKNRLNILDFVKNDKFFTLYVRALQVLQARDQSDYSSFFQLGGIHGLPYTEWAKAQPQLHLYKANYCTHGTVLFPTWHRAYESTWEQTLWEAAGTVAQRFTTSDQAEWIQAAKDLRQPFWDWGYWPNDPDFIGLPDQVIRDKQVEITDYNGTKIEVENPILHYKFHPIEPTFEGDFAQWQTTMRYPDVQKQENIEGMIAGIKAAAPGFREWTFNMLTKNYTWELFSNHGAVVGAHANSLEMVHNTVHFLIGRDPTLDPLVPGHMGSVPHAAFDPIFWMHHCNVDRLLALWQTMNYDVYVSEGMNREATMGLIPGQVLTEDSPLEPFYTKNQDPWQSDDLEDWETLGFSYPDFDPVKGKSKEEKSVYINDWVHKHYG
Sequence of mushroom tyrosinase (G1K3P4 1-150 partner): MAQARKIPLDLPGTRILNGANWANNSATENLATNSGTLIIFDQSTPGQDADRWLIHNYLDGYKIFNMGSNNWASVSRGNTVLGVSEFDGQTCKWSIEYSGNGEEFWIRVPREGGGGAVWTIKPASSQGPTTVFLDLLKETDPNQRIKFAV
Description: The inhibitory effect on mushroom tyrosinase was determined spectrophotometrically via L-DOPA oxidation. The reaction mixture consisted of 20 μL of hdTIPs, 140 μL of 100 mM sodium phosphate buffer (pH6.8) and 40 μL of 200 units/mL mushroom tyrosinase (EC 1.14.18.1; Sigma, Saint Louis, USA) placed in a 96-well microplate, then incubated for 10 min. After that, 20 μL of 5mM L-DOPA were mixed into each well over 20 min. Furthermore, the amount of dopachrome produced absorbance was measured at 475 nm. In addition, KA was used as the positive control at the same concentrations and conditions to hdTIPs. This method was modified from Kim et al..
The mushroom tyrosinase inhibitory activity was calculated with the following equation: % Mushroom tyrosinase inhibition=[(C)−(S)/(C)]×100, where, C represents the OD475 of control and S is the OD475 of sample. All experiments were performed in triplicate to determine the IC50 of the samples.

tyrosinase [1] = details: KNN machine learning model, 425 sequence features; cited from earlier work
Text: (§1) Table 1 Abalone predicted TIPs by KNN and RF-based predictors and the predicted antioxidant scores by AnOxPePred 1.0 program. | column: Predicted Anti-Tyrosinase Probability / KNN Predictor || Previously, our research team proposed the in-house machine learning-based anti-tyrosinase prediction tool, which provides thousands of potential peptides. The probability scores of all 1079 peptides from KNN-based and RF-based models can be found in the supplementary file of the previous article by Kongsompong et al.. The KNN and RF predictors were trained and tested against 133 peptides with known anti-tyrosinase properties with 97% and 99% accuracy. The predictions of both models were based on the numeric matrix of 425 features calculated from amino acid composition (20 featur ...

tyrosinase [2] = details: RF machine learning model, 425 sequence features; cited from earlier work
Text: as §1, with “/ RF” for “/ KNN”

cellular tyrosinase = biological target: T1, cellular tyrosinase (Mus musculus, UniProt P11344); assay: Intracellular (cellular) tyrosinase activity assay in UV-induced B16F10 cells; type: cell-based, murine; details: 70 μM peptide, UVA/UVB-induced B16F10 cells, triplicate
T1 construct: the harvested cells were lysed in cell extraction buffer; endogenous in cells; host or cells: B16F10 murine melanoma cells, UVA/UVB-induced
T1 sequence (P11344 19-533): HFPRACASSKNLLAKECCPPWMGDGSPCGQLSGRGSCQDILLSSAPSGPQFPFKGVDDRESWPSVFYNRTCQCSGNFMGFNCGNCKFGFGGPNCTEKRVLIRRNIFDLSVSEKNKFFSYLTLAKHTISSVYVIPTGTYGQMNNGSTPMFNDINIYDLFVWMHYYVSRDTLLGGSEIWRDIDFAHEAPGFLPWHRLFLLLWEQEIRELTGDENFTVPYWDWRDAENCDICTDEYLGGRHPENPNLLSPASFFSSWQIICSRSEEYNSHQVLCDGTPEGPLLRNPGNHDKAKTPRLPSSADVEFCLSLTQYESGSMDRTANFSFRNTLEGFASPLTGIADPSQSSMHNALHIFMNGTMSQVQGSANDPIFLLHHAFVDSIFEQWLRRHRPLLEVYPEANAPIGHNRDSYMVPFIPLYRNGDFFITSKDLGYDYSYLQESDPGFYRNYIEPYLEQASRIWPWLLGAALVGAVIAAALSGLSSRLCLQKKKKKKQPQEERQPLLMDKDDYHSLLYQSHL
Description: Tyrosinase activity was measured based on Dopa oxidase activity by estimating the dopachrome production according to the method by Qiao et al., 2012 [54], with some modifications. B16F10 cells were seeded at 5 × 10^6 cells/mL in 24-well plates. […] Each well was then washed and replaced with PBS 600 μL and induced with UVA (314-400 nm, 3.0 W) and UVB (280-315 nm, 13.6 W) using OSRAM (Ultra-Vitalux, Germany) for 22 s (0.32 J/cm^2). After that, the cells were incubated with medium 600 μL/well for a further 24 h. Then, the cells were trypsinized and the harvested cells were lysed in cell extraction buffer. After normalized protein concentration, 10 μL of each lysate supernatant was aliquoted into a 96-well plate and shaking incubated in dark conditions with 1 mM L-DOPA 90 μL in PBS at 37 °C at 280 rpm for 10 min. The absorbance was measured at 475 nm and all experiments were performed in triplicate to determine the IC50 of the samples. The cellular tyrosinase inhibitory activity was calculated with the following equation: % Cellular tyrosinase inhibition=[(C)-(S)/(C)]×100, where, C are defined as in the previous section.

B16F10 melanoma cells [3] = assay: Melanin content assay in UV-induced B16F10 cells; type: cell-based, murine; details: for inhibition of melanin content: 70 μM peptide, UVA/UVB-induced B16F10 cells, triplicate
Description: Cellular melanin content was measured using a modified method by Jegal, et al.. B16F10 cells were seeded at 5 × 10^5 cells/mL in 24-well plates. […] After that, the cells in each well were washed and replaced by PBS. The UV stimulation process was performed by the exposure to UVA (314-400 nm, 3.0 W) and UVB (280-315 nm, 13.6 W) for 22 s. Then, PBS was replaced with media and further incubated for 24 h. The UV-stimulated cells were then trypsinized and centrifuged at 1500 rpm for 5 min. The cell pellet was then dissolved in 2 M NaOH at 60 °C for 1 h to solubilize the melanin. The melanin content was estimated by measuring the absorbance at 405 nm. The melanin content was calculated with the following equation: % Melanin content=(S)/(C)×100, where, S is the OD405 of sample and C represents the OD405 of control. All experiments were performed in triplicate.

[4] = tested on: reactive oxygen species (ROS) level in B16F10 cells; assay: ROS level in B16F10 cells after UV exposure (assay kit); type: cell-based, murine; details: 70 μM, UV-exposed B16F10 cells, compared to untreated control group
Description: (§2) To determine the antioxidant activity, the centrifugation precipitate from Section 4.6 was dissolved in 1 mL of 1 M NaOH containing 10% DMSO at 80 °C for 1 h. Various assay kits, all from Beijing Solarbio Science & Technology Co., Ltd., Beijing, China, were used to measure the quantity of reduced reactive oxygen species (ROS) and the activity of superoxide dismutase (SOD), catalase (CAT), and glutathione peroxidase (GPx) according to the methods by Hu et al..

[5] = tested on: superoxide dismutase (SOD); assay: Antioxidative enzyme activity, superoxide dismutase (assay kit); type: cell-based, murine; details: 70 μM, UV-exposed B16F10 cells
Description: as §2

catalase (CAT) = assay: Antioxidative enzyme activity, catalase (assay kit); type: cell-based, murine; details: 70 μM, UV-exposed B16F10 cells
Description: as §2

B16F10 melanoma cells [6] = assay: Cell viability assay (MTT assay); type: cell-based, murine; details: 0–1000 μg/mL, 24 h
Description: The number of viable cells was determined by the ability of mitochondria to convert MTT to formazan dye. The quantity of formazan formed is proportional to the number of viable cells present and can be measured spectrophotometrically. The method for MTT assay in this study was modified from Zaidi et al.. […] After 24 h incubation, 1 mg/mL of MTT (Invitrogen, Eugene, USA) solution was replaced prior to incubation at 37 °C for 3 h. The formazan precipitates were dissolved by 100 μL of dimethyl sulfoxide (DMSO) and the concentrations were measured at 570 nm in a microplate reader (Synergy H1, BioTek, Santa Clara USA). Cell viability was calculated using the following formula: cell viability (%) = (Asample/Acontrol) × 100, where Asample and Acontrol are the absorbances from the mixture with or without the addition of test sample, respectively.

Compound	Predicted Anti-Tyrosinase Probability KNN Predictor (tyrosinase [1])	Predicted Anti-Tyrosinase Probability RF Predictor (tyrosinase [2])	inhibition of cellular tyrosinase (cellular tyrosinase)	inhibition of melanin content (B16F10 melanoma cells [3])	effect on relative percentage of ROS in melanoma cells [4]	also measured
CC(C)C[C@H](NC(=O)[C@H](CO)NC(=O)[C@H](CO)NC(=O)[C@@H](N)CC(N)=O)C(=O)N[C@@H](CCCNC(=N)N)C(=O)N[C@H](C(=O)N[C@@H](CCC(N)=O)C(=O)N[C@@H](CO)C(=O)N[C@@H](CCCNC(=N)N)C(=O)O)C(C)C [RF2] (H-NSSLRVQSR-OH; N-terminus and C-terminus assumed)	0.00	0.60				inhibitory effect on mushroom tyrosinase (diphenolase activity) (mushroom tyrosinase): did not show any inhibition
CC(C)[C@H](NC(=O)[C@H](CO)NC(=O)[C@H](CCCNC(=N)N)NC(=O)[C@H](CO)NC(=O)[C@H](CC(N)=O)NC(=O)[C@H](CO)NC(=O)[C@H](CCC(N)=O)NC(=O)[C@@H](N)CO)C(=O)N[C@@H](CO)C(=O)N[C@@H](CCCNC(=N)N)C(=O)O [RF3] (H-SQSNSRSVSR-OH; N-terminus and C-terminus assumed)	0.00	0.52	5.11%	6.09%	significant reductive effects	effect on SOD activity [5]: affected; effect on CAT activity (catalase (CAT)): affected
CC[C@H](C)[C@H](NC(=O)[C@@H](N)CC(N)=O)C(=O)N[C@@H](CS)C(=O)N[C@@H](CCC(=O)O)C(=O)N[C@@H](CS)C(=O)N[C@@H](CCSC)C(=O)N[C@@H](CCCCN)C(=O)O [KNN1] (H-NICECMK-OH; N-terminus and C-terminus assumed)	1.00	0.39	unable to inhibit	unable to inhibit; also recorded: did not inhibit		
CSCC[C@H](NC(=O)[C@H](Cc1ccccc1)NC(=O)[C@@H]1CCCN1C(=O)[C@H](C)NC(=O)[C@@H](N)CO)C(=O)N1CCC[C@H]1C(=O)N[C@@H](CC(=O)O)C(=O)N[C@@H](C)C(=O)N[C@@H](Cc1ccccc1)C(=O)N[C@@H](Cc1ccccc1)C(=O)N[C@@H](CCCNC(=N)N)C(=O)N[C@@H](CC(N)=O)C(=O)N[C@H](C(=O)O)C(C)C [TIP2] (H-SAPFMPDAFFRNV-OH; N-terminus and C-terminus assumed)			3.32%	6.71%		
C[C@H](NC(=O)[C@H](CC(=O)O)NC(=O)[C@H](CO)NC(=O)[C@H](CO)NC(=O)[C@H](C)NC(=O)[C@@H](N)[C@@H](C)O)C(=O)N[C@@H](Cc1c[nH]c2ccccc12)C(=O)N[C@@H](Cc1ccc(O)cc1)C(=O)N[C@@H](CCCNC(=N)N)C(=O)O [TIP1] (H-TASSDAWYR-OH; N-terminus and C-terminus assumed)					significant reductive effects	
OC[C@H]1O[C@@H](Oc2ccc(O)cc2)[C@H](O)[C@@H](O)[C@@H]1O [arbutin, reference compound]						effect on cell proliferation of melanoma cells (B16F10 melanoma cells [6]): did not affect the cell proliferation
O=c1cc(CO)occ1O [kojic acid, reference compound]						inhibition at 100 µg/mL (B16F10 melanoma cells [3]; Mus musculus, B16-F10, light or radiation study): 21.1%
C[C@H](NC(=O)[C@@H](N)CO)C(=O)N1CCC[C@H]1C(=O)N[C@H](C(=O)N[C@@H](Cc1ccccc1)C(=O)N[C@@H](Cc1ccccc1)C(=O)N[C@@H](CCCNC(=N)N)C(=O)O)[C@@H](C)O [RF1] (H-SAPTFFR-OH; N-terminus and C-terminus assumed)	0.00	0.63	18.26%	10.69%	significant reductive effects	inhibitory effect on mushroom tyrosinase (diphenolase activity) (mushroom tyrosinase): did not inhibit
CC(C)[C@H](NC(=O)[C@H](CCCNC(=N)N)NC(=O)[C@H](Cc1ccc(O)cc1)NC(=O)[C@H](CC(N)=O)NC(=O)[C@H](CCCCN)NC(=O)[C@@H](N)CCCCN)C(=O)N[C@@H](CO)C(=O)N[C@@H](CCC(=O)O)C(=O)N[C@@H](C)C(=O)N[C@@H](Cc1ccc(O)cc1)C(=O)N[C@@H](CCCCN)C(=O)O [KNN3] (H-KKNYRVSEAYK-OH; N-terminus and C-terminus assumed)	1.00	0.32				
